Reference: patent US12459951B2, “Compounds that interact with RAS superfamily proteins for treatment of cancers, inflammatory diseases, rasopathies, and fibrotic disease” (SHY Therapeutics, LLC, priority 2022, dated 2025)

Key:
Set-up in all cases: species or system human
[1] = tested on: active/cleaved caspase 3; experiment: Cell-based caspase activation assay (western blot)
Experimental: (§1) Biological Example 4: Puma Expression and Caspases Activation Assay
(§2) Protocols for Cell-Based Puma Expression and Caspase Activation Assays
(§3) Cell lines: All human tumor-derived cancer cell lines were purchased from American Type Culture Collection. Human tumor-derived cancer cell lines Panc-1 (expressing KRas G12D mutant), MiaPaca-2 (expressing KRas G12C mutant), A549 (expressing KRas G12S mutant), and A375 (expressing wild type KRas) were grown in complete DMEM-High Glucose medium and NCI-H1975 (expressing wild type KRas), MM.1R (expressing wild type KRas) and IM.9 (expressing wild type KRas) were grown in RPMI1640 medium. Human tumor-derived cancer cell line BT-549 (expressing wild type KRas) was grown in RPMI1640 medium with 11.8U insulin. All mediums were supplemented with penicillin (100 U/mL), streptomycin (100 μg/mL), and 10% heat-inactivated FBS at 37° C. in a humidified incubator with 5% CO2.
(§4) Method: Cells were plated at 300,000 to 800,000 cells/well density in a 6-well plate in the presence of 10% FBS. The next day small molecules to be tested were added to the cells in the final concentration of 3 μM in the presence of 0.3% DMSO for 48 hours incubation at 37° C. For IC50 value determination, serial dilutions of compounds were added to cells under the same conditions. Following 48 hours of incubation cells were lysed with lysis buffer containing 1% Triton X-100, EDTA, and Halt™ Protease & Phosphatase Inhibitor Cocktail (Thermo Scientific). Protein concentration was assessed by BCA protein assay (Thermo Scientific). Increase expression of PUMA and active/cleaved forms of caspase 3, caspase 6 and caspase 9 were detected by western blot.
(§5) Western blot protocol: Equal amounts of protein (15-50 μg) were separated by SDS-PAGE and transferred to nitrocellulose membranes (Invitrogen by Thermo Fisher Scientific). The membrane was stained with Ponceau S Stain (Boston BioProducts) to verify uniform protein loading. Membranes were blocked with 10% milk and expression levels of PUMA was assessed by incubating overnight at 4° C. with the antibody PUMA (D30C10) from Cell Signaling Technology (#12450) and active/cleaved forms of caspase 3, caspase 6 and caspase 9 by incubating overnight at 4° C. with the following antibodies: cleaved caspase-3 (Asp175) (5A1E), cleaved caspase-6 (Asp162) and cleaved caspase-9 (Asp330) (D2D4) (all antibodies from Cell Signaling Technology). Then the membranes were incubated with HRP-conjugated secondary antibody (Jackson Immunoresearch, West Grove, PA). Bands were incubated in Amersham ECL Prime Western Blotting Detection Reagent (GE Healthcare) and visualized using the ChemiDoc MP imaging system (Bio-Rad).

[2] = tested on: active/cleaved caspase 6; experiment: Cell-based caspase activation assay (western blot)
Experimental: as §1, §2, §3, §4, §5

[3] = tested on: active/cleaved caspase 9; experiment: Cell-based caspase activation assay (western blot)
Experimental: as §1, §2, §3, §4, §5

[4] = tested on: PUMA expression; experiment: Cell-based Puma expression assay (western blot)
Experimental: as §1, §2, §3, §4, §5

Cc1c(-c2ccn(C(C)C)n2)cn2nc(-c3nccn3C)nc(Nc3cc4n(n3)CCO4)c12 [Compound 91, N-(6-(1-Isopropyl-1H-pyrazol-3-yl)-5-methyl-2-(1-methyl-1H-imidazol-2-yl)pyrrolo[2,1-f][1,2,4]triazin-4-yl)-2,3-dihydropyrazolo[5,1-b]oxazol-6-amine]
yes: Caspase 3 activation ([1]; A549, after 48 hours) | Caspase 3 activation ([1]; BT-549, after 48 hours) | Caspase 3 activation ([1]; MiaPaca2, after 48 hours) | Caspase 6 activation ([2]; A549, after 48 hours) | Caspase 6 activation ([2]; BT-549, after 48 hours) | Caspase 6 activation ([2]; MiaPaca2, after 48 hours) | Caspase 9 activation ([3]; A549, after 48 hours) | Caspase 9 activation ([3]; BT-549, after 48 hours) | Caspase 9 activation ([3]; MiaPaca2, after 48 hours) | Increased PUMA expression ([4]; A549, after 48 hours) | Increased PUMA expression ([4]; BT-549, after 48 hours) | Increased PUMA expression ([4]; MiaPaca2, after 48 hours)
